These results are taken from patent US20240197876A1, “METHODS TO DETERMINE TREATMENT EFFICACY WITH GAMMA-DELTA T CELLS” (THE TRUSTEES OF THE UNIVERSITY OF PENNSYLVANIA, priority 2021, published 2024).

Series [1] has as its system Vδ2 T cells. Kind of series: Vδ2 T cell expansion from cultured PBMCs (γδTCR activator with or without TLR agonist), FACS. The note with it: for co-stimulatory effect on IPP induced Vδ2 T cell expansion: IPP 5 μg/ml plus TLR agonist, day 5 or 7. It is filed as cell-based, human. The procedure:
Primary cells and cell lines: PBMCs and monocytes were obtained from Human Immunology Core at the University of Pennsylvania, which were obtained from healthy donors-Using informed consent and approved by Institutional Review Board. For γδ T cell expansion, PBMCs were cultured with RPMI1640 media supplemented with 10% FBS (HyClone, GE Healthcare, UT, USA), 100 U/ml Penicillin-Streptomycin, 2 mM L-Glutamine, 1/1000 2-Mercaptoethanol (2-Me) (Gibco, ThermoFisher Scientific, MA, USA) (or without 2-Me as indicated) and 200 units/ml of Recombinant Human IL-2 (PeproTech, NJ, USA) in 24-well microplates, new media added and supplemented every other day. TCR-γδ T cells were expanded in 24-well tissue culture treated microplates that were coated with mouse-monoclonal Anti-Pan-TCR γδ antibody (1.0 ug/ml in PBS; IMMU510, IM1349, Beckman). For naive γδT cell isolation, PBMCs were purified using a commercial Human TCR γ/δ T Cell Isolation Kit (Miltenyi Biotec, Germany). […] Human melanoma cell lines A375, A2058, WM9, 903 were obtained from Meenhard Herlyn's laboratory (The Wistar Institute, Philadelphia, PA, USA) and they were routinely tested for mycoplasma and DNA fingerprinted (Liu, et al., 2018, Nat Commun 9: 5426). Lung cancer cell line H1975, Colon cancer cell line HT-29, Gastric cancer cell line NCI-N87 were purchased from ATCC. Daudi cells were obtained from Andrei Thomas-Tikhonenko Lab at the University of Pennsylvania and Children's Hospital of Philadelphia, K562 cells were obtained from Michael Milone Lab at the University of Pennsylvania. BRAFi and MEKi combination therapy resistant (CR) cell lines WM9-CR and A2058-CR were generated as described before (Lu, et al., 2017, Nature 550: 133-136).
Flow cytometry: PBMCs and γδ T cell phenotypes were analyzed by flow cytometry. Briefly, single-cell suspensions were surface-stained for 30 min at 4° C. in dark, and […] staining was performed for 60 min after fixation and permeabilization using a True-Nuclear™ Transcription Factor Buffer Set (BioLegend, CA, USA). CFSE Cell Proliferation Kit for flow cytometry was purchased from Invitrogen (ThermoFisher Scientific, MA, USA). Fluorescein-conjugated antibodies were used. Data were acquired on LSRA/B or Fortessa B flow cytometers (BD Biosciences, NJ, USA) at Flow Cytometry and Cell Sorting Resource Laboratory at the University of Pennsylvania and analyzed with FlowJo software (Tree Star, Ashland, OR).

The test system of series [2] is UACC903 and A2058 melanoma cells. Kind of series: Cytotoxicity and 3-D tumor spheroid assays with γδ T cells expanded by ZOL or anti-γδTCR antibody. It is filed as cell-based, human. The protocol:
Cytotoxicity assays. The CytoTox 96® Non-Radioactive Cytotoxicity Assay (Promega, Madison, WI) was applied to measure the cytotoxicity of expanded Vγ9Vδ2 T cells. In this respect, A375 (2×10^4 cells/well), A2058 (2×10^4 cells/well), and 903 (2×10^4 cells/well) melanoma cells were used as target cells and seeded into a 96-round well plate, and expanded Vγ9Vδ2 T cells (1×10^5 cells/well) served as effector cells were directly added to individual wells incubated overnight. The supernatants were collected and the lactate dehydrogenase activity was detected. Controls for spontaneous lactate dehydrogenase release from effector and target cells, the target maximum release, as well as the culture medium background were measured simultaneously (Zhou et al., Cell Mol Immunol. 2012; 9(1):34-44).
3-D Spheroid Assays. The 96-well plate was pre-coated with 50 μL 1.5% Agarose (LONZA, Rockland, ME). Melanoma cells (A2058 and UACC 903 cells) were labeled with CellTracker™ Orange CMRA Dye (Thermo Fisher Scientific, Waltham, MA) and seeded at 2×10^4 cells/well and allowed to form spheroids over 48 hours. […] Infiltrated spheroids were analyzed at 48 h using confocal microscope (Leica, Wetzlar, Germany). Spheroids were divided into single cells and CFSE+ cells infiltrating the spheroids was counted by flow cytometry.

Series [3] has as its system purified γδ T cells. Kind of series: CFSE proliferation of purified naive γδ T cells. It is filed as cell-based, human. To be noted: ZOL+PBMCs group, same-donor PBMCs not labeled. The protocol: Primary cells and cell lines: PBMCs and monocytes were obtained from Human Immunology Core at the University of Pennsylvania, which were obtained from healthy donors-Using informed consent and approved by Institutional Review Board. For γδ T cell expansion, PBMCs were cultured with RPMI1640 media supplemented with 10% FBS (HyClone, GE Healthcare, UT, USA), 100 U/ml Penicillin-Streptomycin, 2 mM L-Glutamine, 1/1000 2-Mercaptoethanol (2-Me) (Gibco, ThermoFisher Scientific, MA, USA) (or without 2-Me as indicated) and 200 units/ml of Recombinant Human IL-2 (PeproTech, NJ, USA) in 24-well microplates, new media added and supplemented every other day. TCR-γδ T cells were expanded in 24-well tissue culture treated microplates that were coated with mouse-monoclonal Anti-Pan-TCR γδ antibody (1.0 ug/ml in PBS; IMMU510, IM1349, Beckman). For naive γδT cell isolation, PBMCs were purified using a commercial Human TCR γ/δ T Cell Isolation Kit (Miltenyi Biotec, Germany). Purified naive γδ T cells routinely exceeded >95% […] by flow cytometry. […]
Flow cytometry: PBMCs and γδ T cell phenotypes were analyzed by flow cytometry. […] Data were acquired on LSRA/B or Fortessa B flow cytometers (BD Biosciences, NJ, USA) at Flow Cytometry and Cell Sorting Resource Laboratory at the University of Pennsylvania and analyzed with FlowJo software (Tree Star, Ashland, OR).

Series [4] relates to γδ T cells. Kind of series: Expansion of γδ T cells ex vivo from PBMC with ZOL or anti-γδTCR Ab plus IL-2. It is filed as cell-based, human. The procedure:
Expansion of γδ T cells ex vivo. PBMC were plated at 2×10^6 cells per well in 24-well flat-bottomed plates at 37° C. in a humidified atmosphere of 5% CO2. The standard culture medium contains RPMI 1640 (Gibco), containing 10% FBS (Gibco), 2 mM L-glutamine (Gibco), 100 U/ml penicillin (Gibco), streptomycin (Gibco) and 200 IU/ml IL-2 (PeproTech, Rocky Hill, NJ) (Castella et al., Nature communications. 2017; 8:15663.) 5 μM zoledronic acid (Sigma-Aldrich, St. Louis, MO USA) was added into the culture medium at the first day and the medium containing IL-2 changed every two days. In some cases, 24-well plates were pre-coated with 0.5 μg/ml anti-γδTCR Ab (Immunotech, Beckman Coulter, Fullerton, CA) and then PBMCs were added to the anti-γδTCR Ab-coated wells and cultured in the standard culture medium mentioned above. The viability and cell number of γδ T cells were evaluated by the trypan blue staining assay, and the percentage of γδ T cells counted by flow cytometry (Ryan et al., Proc NatlAcadSci USA. 2016; 113(50):14378-83).
Antibodies and flow cytometry analyses. […] Samples were acquired using a LSR-A flow cytometer (BD Biosciences, Baltimore, MD) and analyzed using FlowJo software (Tree Star Inc., Ashland, OR).

Series [5] concerns Vδ2 T cells in Hu-Mice. Kind of series: Vδ2 T cell expansion from PBMCs of humanized mice. It is filed as cell-based. To be noted: PBMCs from four Hu-Mice, 10 days. An excerpt: Humanized Mice (Hu-Mice): Humanized mice were generated at the Wistar Institute as described (Somasundaram, et al., 2021, Nat Commun 12: 346). Briefly, the humanized mouse model is developed by reconstituting immunodeficient NSG mice with fetal liver-derived CD34+ human hematopoietic stem cells, grafted intravenously, and autologous fetal thymus chunks, grafted under the renal capsule, to promote rapid human T-cell differentiation.
NSG mice engrafted with human hematopoietic stem (CD34+) cells or peripheral blood leukocytes (Hu-Mice) are a useful tool to study immunotherapy (Somasundaram, et al., 2021, Nat Commun 12: 346). However, it was previously unclear whether these mice have functional human γδ T cells. As shown herein, CD3^+VS2^+ T cells are present in the PBMCs of Hu-Mice (FIG. 32A). PBMCs from four Hu-Mice were cultured using human PBMCs culture media and were stimulated with IPP plus resiquimod, or ZOL, for 10 days.

Series [6] deals with melanoma cells. Kind of series: LDH release cytotoxicity of expanded γδ T cells to melanoma cell lines. It is filed as cell-based, human. The note with it: E:T 5:1. The procedure: Cytotoxicity: Cytotoxicity of γδ T cells against melanoma cells was measured by lactate dehydrogenase (LDH) release using the CytoTox 96® Non-Radioactive Cytotoxicity Assay kit (G1780, Promega, WI, USA) as described (Zhu, et al., 2016, Molecular Medicine 22: 737-746). Briefly, Melanoma cells were seeded at 4×10^4 cells/well in 50 μl standard growth medium in 96-well plates, while γδ T cells were seeded at effective target ratio E:T=5:1 in the same volume of PBMC culture media at the same time. After the indicated time, plates were spin down briefly and 50 μl supernatants were then harvested for further analysis. Absorbance at 490 nm was read using a BioTek Synergy HT reader (BioTek Instruments, VT, USA) after LDH activity detection, the percentage of cytotoxicity was calculated as (Experimental-Effector Spontaneous-Target Spontaneous)/(Target Maximum-Target Spontaneous)×100.

For series [7], the system named is monocytes.
Procedure: FIG. 30C provides data for purified monocytes cultured with resiquimod for 24 h with indicated concentration, and the viability and mortality were detected with Annexin V/7-AAD apoptosis kit and flow cytometry.
Series [8] relates to gastric, colon and lung cancer cells. Kind of series: LDH release cytotoxicity of expanded γδ T cells to epithelial cancer cell lines. It is filed as cell-based, human. To be noted: E:T 5:1; resiquimod 10 μg/ml.

Structures are written as SMILES. Entries after “also recorded” stand apart in the source; their conditions may differ.

On to `OCCS` [2-mercaptoethanol], for which, in series [1] (IPP plus resiquimod, 8 days, medium with or without 2-Me), the “effect of antioxidant in the culture medium on Vδ2 T cell expansion” value is “did not affect Vδ2 T cell expansion”.
In the case of `NC(=O)[C@H]1CCS[C@@H]2C[C@]3(CCCN3C(=O)Cc3ccc(NC(=O)COc4ccc(Cl)cc4Cl)cc3)C(=O)N12` [ST2825], the “effect of MyD88 inhibition on resiquimod co-stimulation of Vδ2 T cell expansion” value in series [1] (PBMCs with IPP or IPP plus resiquimod) is on record as “eliminated the co-stimulatory function of resiquimod”.
For the compound `O=P(O)(O)C(O)(Cn1ccnc1)P(=O)(O)O` [ZOL, zoledronate], the “cytotoxicity of tumor spheroid assays” value in series [2] is on record as “comparable results”. The “Vδ2 T cell (CFSE+) proliferation when PBMCs were added to the culture system” value in series [3] is listed as “regained the capability of inducing Vδ2 T cells (CFSE+) proliferation”. Also, the “γδ T cell subsets expanded” value in series [4] (PBMCs expanded by ZOL or anti-TCRγδ Ab) was “preferentially expanded Vδ2 cells”. Besides, in series [4] (PBMCs of healthy donors, 10 day expansion with IL-2), the “γδ T cell expansion, ZOL compared with anti-γδTCR antibody” value is on record as “significantly better than that of anti-γδT TCR antibody; also recorded: better expansion of γδ T cells than anti-γδTCR antibody”. Moreover, the “expansion of peripheral Vδ2 T cells in Hu-Mice” value in series [5] is “approximately a thousand-fold expansion”.
In the case of `CCNCc1nc2c(N)nc3ccccc3c2n1CC(C)(C)O` [gardiquimod], the “co-stimulatory effect on IPP induced Vδ2 T cell expansion” value in series [1] (PBMCs) is listed as “promoted Vδ2 T cell expansion”.
In the case of `CC(C)Cn1cnc2c(N)nc3ccccc3c21` [imiquimod], the “co-stimulatory effect on IPP induced Vδ2 T cell expansion” value in series [1] (PBMCs) was “promoted Vδ2 T cell expansion”.
On to `CCOCc1nc2c(N)nc3ccccc3c2n1CC(C)(C)O` [resiquimod], for which, in series [6] (A375, 12051u, 903, A2058, WM9, A2058CR, WM9CR, resiquimod 10 μg/ml), the “cytotoxic effect of γδ T cells expanded using pan-anti-γδTCR antibody to melanoma cell lines” value was “significantly enhanced the cytotoxic effect”. The “cytotoxic effect of γδ T cells expanded using IPP” value in series [6] (A375 and A2058, about 13 days expansion with or without resiquimod) is reported as “significantly enhanced the cytotoxic effect”. Besides, the “apoptosis and cell death of monocytes” value in series [7] is “induced apoptosis and cell death in some monocytes”. In addition, the “cytotoxic effect of γδ T cells expanded using pan-anti-γδTCR antibody to epithelial cancer cells” value in series [8] was “significantly enhanced the cytotoxic effect”. Further, the “efficacy and cytotoxicity compared among three TLR7/8 agonists” value in series [1] (co-stimulation with IPP, PBMCs, day 7) is “best efficacy with the least cytotoxicity”.
For the compound `CCC(=O)N1CCN(c2ccc(-n3c(=O)ccc4cnc5ccc(-c6cnc7ccccc7c6)cc5c43)cc2C(F)(F)F)CC1` [torin1], in series [1] (PBMCs with IPP), the “expansion of Vδ2 T cells induced by IPP in presence of mTOR inhibitor” value is given as “significantly reduced”. The “inhibition of Vδ2 T cell expansion by IPP plus resiquimod, relative to IPP” value in series [1] (PBMCs with IPP plus resiquimod and mTOR inhibitor) was “more prominent”.
